For assay [1], the target named is T1, Xanthine dehydrogenase/oxidase (Bos taurus, UniProt P80457). Description: Inhibition of bovine milk xanthine oxidase at 10 uM using xanthine as substrate preincubated for 3 mins followed by substrate addition and measured at 1 min for 10 mins relative to control. To be noted: cattle.
Assay [2] relates to Mus musculus. Description: Hypouricemic effect in ICR mouse model of potassium oxonate and hypoxanthine-induced acute hyperuricemia assessed as reduction in serum uric acids level at 5 mg/kg, po dosed 1 hr after potassium oxonate and hypoxanthine challenge and measured after 1 hr. It is filed as functional, organism-based.
Assay [3] deals with Mus musculus. Description: Hypouricemic effect in ICR mouse model of potassium oxonate and hypoxanthine-induced acute hyperuricemia assessed as reduction in serum uric acids level at 20 mg/kg, po dosed 1 hr after potassium oxonate and hypoxanthine challenge and measured after 1 hr. The format is functional, organism-based.
Assay [4] concerns the target T1, Xanthine dehydrogenase/oxidase. The assay is described as follows: Inhibition of bovine milk xanthine oxidase using xanthine as substrate preincubated for 3 mins followed by substrate addition and measured at 1 min for 10 mins.

Structures are written as SMILES. Active and inactive are the calls of the source. No cut-off for these calls is given here.

T1 sequence (P80457 whole entry): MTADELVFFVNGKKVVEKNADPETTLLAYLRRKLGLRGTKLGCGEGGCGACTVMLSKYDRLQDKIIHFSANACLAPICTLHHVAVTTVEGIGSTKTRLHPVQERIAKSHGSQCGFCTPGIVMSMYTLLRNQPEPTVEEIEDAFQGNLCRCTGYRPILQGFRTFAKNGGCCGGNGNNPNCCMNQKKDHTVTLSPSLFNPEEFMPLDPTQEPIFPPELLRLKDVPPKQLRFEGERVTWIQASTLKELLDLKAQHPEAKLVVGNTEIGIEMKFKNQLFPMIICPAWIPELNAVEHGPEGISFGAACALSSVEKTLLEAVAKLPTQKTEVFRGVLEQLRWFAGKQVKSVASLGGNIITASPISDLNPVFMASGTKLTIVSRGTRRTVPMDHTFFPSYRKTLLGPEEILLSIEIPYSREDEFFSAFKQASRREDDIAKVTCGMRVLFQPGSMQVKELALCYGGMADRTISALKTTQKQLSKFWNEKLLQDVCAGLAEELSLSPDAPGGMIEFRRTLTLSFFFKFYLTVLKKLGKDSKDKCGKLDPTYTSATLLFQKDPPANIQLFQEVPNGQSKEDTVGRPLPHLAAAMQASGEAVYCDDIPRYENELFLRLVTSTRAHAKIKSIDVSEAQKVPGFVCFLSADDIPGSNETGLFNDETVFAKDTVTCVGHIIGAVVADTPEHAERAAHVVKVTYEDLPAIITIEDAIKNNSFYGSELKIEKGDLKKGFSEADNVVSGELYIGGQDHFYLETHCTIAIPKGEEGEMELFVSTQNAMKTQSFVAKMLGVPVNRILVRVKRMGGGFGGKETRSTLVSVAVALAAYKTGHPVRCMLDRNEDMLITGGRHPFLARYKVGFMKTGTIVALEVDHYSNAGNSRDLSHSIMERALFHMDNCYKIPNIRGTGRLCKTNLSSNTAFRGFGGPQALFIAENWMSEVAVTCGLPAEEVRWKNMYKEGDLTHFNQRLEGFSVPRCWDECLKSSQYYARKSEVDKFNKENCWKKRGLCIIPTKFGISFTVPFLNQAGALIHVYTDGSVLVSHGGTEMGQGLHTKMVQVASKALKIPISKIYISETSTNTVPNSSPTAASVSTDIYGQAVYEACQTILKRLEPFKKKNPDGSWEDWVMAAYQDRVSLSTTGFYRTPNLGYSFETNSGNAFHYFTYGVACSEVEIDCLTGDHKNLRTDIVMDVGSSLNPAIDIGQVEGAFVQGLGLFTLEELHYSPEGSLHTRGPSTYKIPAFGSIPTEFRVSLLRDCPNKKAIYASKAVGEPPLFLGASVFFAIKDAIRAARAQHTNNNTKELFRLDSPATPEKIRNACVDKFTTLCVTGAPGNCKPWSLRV

In general, inhibition refers to the percentage by which the read-out fell short of the control. High values mean a strong effect, low ones a weak effect. In turn, `O=C(O)c1cc(-c2ccccc2)on1` gave an inhibition at 10 µM in assay [1] of 4.2%. The molecule `Cc1cc(C(=O)O)nn1-c1ccccc1` returned an inhibition at 10 µM in assay [1] of 13.9%. On the same count and under the same terms, the value for `Cc1nc(-c2ccccc2)oc1C(=O)O` was 12.5%.

As for `Cc1nc(-c2ccc(OCC(C)C)c(C#N)c2)sc1C(=O)O` [FEBUXOSTAT], in the assay with Mus musculus [2], the result was Active. In addition, the inhibition at 10 µM in assay [1] came out at 98.5%. Turning to `O=C(O)c1csc(-c2ccccc2)n1`, in assay [1], the inhibition at 10 µM amounted to 32.8%. On the same count and under the same terms, the value for `Cc1nc(-c2ccccc2)sc1C(=O)O` was 37.6%. What is called IC50 is the point on the concentration scale where inhibition reaches its midpoint. Consider `CC(C)COc1ccc(-c2nc(C(=O)O)cs2)cc1[N+](=O)[O-]`, for which the outcome with Mus musculus [3] was Active. Moreover, in assay [4], half-maximal inhibition (IC50) was put at 48.6 nM. For `Cc1nc(-c2ccc(OCC(C)C)c([N+](=O)[O-])c2)sc1C(=O)O`, in that order: “Active” and 33.4 nM. With `O=C(O)c1nc(-c2ccccc2)cs1`, in assay [1], the inhibition at 10 µM stood at 18.6%.

For the origin of these results see ChEMBL document CHEMBL4330135, “Discovery of 2-phenylthiazole-4-carboxylic acid, a novel and potent scaffold as xanthine oxidase inhibitors” (Bioorg Med Chem Lett, 2019).
